Laboratory results published in ChEMBL document CHEMBL1157266, “A cyclopeptide from the Insect pathogenic fungus Cordyceps sp. BCC 1788” (J Nat Prod, 2006).
Where a SMILES comes first, the peptide text is derived from it. [ ]: non-standard residue; d: D form. NMeY = CN[C@@H](Cc1ccc(O)cc1)C(=O)O; dNMeF = CN[C@H](Cc1ccccc1)C(=O)O; Sar = CNCC(=O)O

Experiments:
Plasmodium falciparum = test: Antimalarial activity against Plasmodium falciparum K1 by [3H]hypoxanthine uptake; format: functional, organism-based
Vero = test: Cytotoxicity against african green monkey Vero cells; format: cell-based; settings: Chlorocebus sabaeus

C[C@H]1[C@@H](O)O[C@@H]2O[C@@]3(C)CC[C@H]4[C@H](C)CC[C@@H]1[C@@]24OO3 [ARTENIMOL]
IC50 (Plasmodium falciparum): 6 nM

Cc1c2ccncc2c(C)c2c1[nH]c1ccccc12 [ELLIPTECINE]
IC50 (Vero): 2440 nM

CC[C@H](C)[C@@H]1NC(=O)[C@H](Cc2ccc(O)cc2)N(C)C(=O)[C@H](Cc2ccccc2)NC(=O)CN(C)C(=O)[C@@H]2CCCN2C(=O)[C@@H](Cc2ccccc2)N(C)C(=O)[C@H](CC(C)C)NC1=O [CORDYHEPTAPEPTIDE A] (cyclo(F[NMeY]IL[dNMeF]P[Sar]))
IC50 (Plasmodium falciparum): 5350 nM | IC50 (Vero): > 56900 nM
